The record followed here is US4745111A, “Anti-anxiety, anti-agitation, and anti-sleepless states 4-substituted 10-cyanomethylenethieno-[4,3-e]benzoazepine derivatives, compositions, and methods of use therefor” (priority 1985, dated 1988).

Experiment [1] relates to orientation hypermotility. Briefly: Sedative action in the mouse (inhibition of orientation hypermotility). Type of experiment: in vivo, mouse (female NMRI). As to conditions: for ED50: Mus musculus, 0.5 h, female NMRI mice, oral, dose giving 50% reduction in orientation hypermotility, measured from 30 min after administration over 30 min; for Sedative action (in words): comparison of cis/trans isomers and with comparative substance. Here is the method:
The substances are administered orally to 4-8 groups of female NMRI mice, each group comprising 3 mice. The orientation hypermotility induced by a new environment was determined photoelectrically 30 minutes after administration of the substances, over a period of 30 minutes.
The ED50 %, i.e. the dose which produces a 50% reduction in orientation hypermotility compared to placebo-treated control animals, is determined.

For another experiment, the system named is L-5HTP. Briefly: L-5-HTP antagonism (serotonin antagonism) in the rat. In kind it is in vivo. As to conditions: po, read-out: Antimonaminergic action: L-5HTP antagonism, rat, ED50 %. The method, then:
In the rat (316 mg/kg, administered intraperitoneally), L-5-[…] (L-5HTP), a prodrug for serotonin, leads to signs of agitation, such as shaking of the head, tremors and movements of the front feet. The animals are observed for 1 hour after administration of L-5HTP, and the symptoms occurring are quantified every 10 minutes with the aid of a score. The test substances are administered perorally 1 hour before L-5HTP. The ED50 % is calculated as the dose which produces on average a 50% reduction in the scores observed for a control group.

The next experiment concerns apomorphine. Briefly: Apomorphine antagonistic action (antidopaminergic action), climbing in mice. Type of experiment: in vivo, mouse. Conditions: for ED50: Mus musculus, po, apomorphine 1.21 mg/kg s.c., dose reducing climbing scores by 50% vs control, read-out: Antimonaminergic action: Apomorphine antagonism, mouse, ED50 %; for Antimonaminergic action (in words): apomorphine (mouse) and L-5HTP (rat) antagonism together, comparison of isomers and with comparative substance. Here is the method:
In mice kept in a suitable environment (e.g. a wiremesh cage), apomorphine (1.21 mg/kg, administered subcutaneously) leads to increased climbing. The animals are observed for 30 minutes after administration of apomorphine, and the climbing is quantified every 2 minutes with the aid of a score. The test substances are administered perorally 60 minutes […] administration of apomorphine. The ED50 % is calculated as the dose which reduces the scores by 50% compared with a control group.

The next experiment has as its system physostigmin. Briefly: Anticholinergic action (protection from physostigmin lethality) in the mouse. In kind it is in vivo, mouse (female NMRI). As to conditions: for ED50: Mus musculus, po, read-out: Anticholinergic action, mouse, ED50 %; for Anticholinergic action (in words): comparison of isomers and with comparative substance. Here is the method: A lethal dose (0.825 mg/kg) of physostigmin is administered subcutaneously to groups of 10 female NMRI mice. The test substances are administered orally 30 minutes before administration of physostigmin. The ED50 % is determined as the dose of substance which protects 50% of the animals from death due to physostigmin.

Setting [2] is: L-5HTP 316 mg/kg i.p., substance p.o. 1 hour before, 50% reduction in scores.

SMILES strings stand for the structures. “Also recorded” adds a separate entry of the source. Read-outs that look alike come from different tables or passages of the source.

As for `CN1CCN(C2=Nc3ccccc3/C(=C/C#N)c3cscc32)CC1` [Example 1 (cis), cis-10-cyanomethylene-4-(4-methylpiperazin-1-yl)-thieno[4,3-e]benzoazepine], in experiment [1], the ED50 was determined as 0.35 mg/kg and the “Sedative action (in words)” value is given as “displayed preferentially by the cis isomer”. Further, the ED50 in the experiment on L-5HTP (setting [2]) was 1 mg/kg. Moreover, in the experiment on apomorphine, the 50% effective dose (ED50) amounted to 1 mg/kg and the “Antimonaminergic action (in words)” value was “displayed preferentially by the cis isomer”. For the same molecule, in the experiment with physostigmin, the ED50 is more than 10 mg/kg and the “Anticholinergic action (in words)” value is recorded as “greatly reduced”.
As for `CCN1CCN(C2=Nc3ccccc3C(=CC#N)c3cscc32)CC1` (mixture of isomers) [Example 9, cis,trans-10-cyanomethylene-4-(4-ethylpiperazin-1-yl)-thieno[4,3-e]benzoazepine], the ED50 in experiment [1] is 0.81 mg/kg; in the experiment with apomorphine, 1 mg/kg; with physostigmin it was more than 10 mg/kg.
As for `CN1CCN(C2=Nc3ccccc3C(=CC#N)c3cscc32)CC1` (mixture of isomers) [Example 1, cis,trans-10-cyanomethylene-4-(4-methylpiperazin-1-yl)-thieno[4,3-e]benzoazepine], the ED50 in experiment [1] amounted to 0.89 mg/kg; in the experiment on L-5HTP (setting [2]), 0.77 mg/kg; with apomorphine, 1.7 mg/kg; in the experiment on physostigmin it was 15.8 mg/kg.
For `CN1CCN(C2=Nc3c(Cl)cccc3/C(=C\C#N)c3cscc32)CC1` [Example 16, trans-6-chloro-10-cyanomethylene-4(4-methylpiperazin-1-yl)-thieno[4,3-e]benzoazepine], the ED50 in experiment [1] was approximately 3 mg/kg; in the experiment with L-5HTP, 1 mg/kg; with physostigmin, more than 10 mg/kg.
On to `CN1CCN(C2=Nc3cc(F)ccc3C(=CC#N)c3cscc32)CC1` (mixture of isomers) [Example 4, cis,trans-7-fluoro-10-cyanomethylene-4-(4-methylpiperazin-1-yl)-thieno[4,3-e]benzoazepine], for which the ED50 in experiment [1] is 3.27 mg/kg; with L-5HTP (setting [2]) it was 1 mg/kg; in the experiment on apomorphine, approximately 2 mg/kg; in the experiment on physostigmin, approximately 21 mg/kg.
As to `Cc1ccc2c(c1)N=C(N1CCN(C)CC1)c1cscc1C2=CC#N` (mixture of isomers) [Example 5, cis,trans-7-methyl-10-cyanomethylene-4-(4-methylpiperazin-1-yl)-thieno[4,3-e]benzoazepine], the ED50 is 3.75 mg/kg in experiment [1], 1.4 mg/kg with L-5HTP (setting [2]), approximately 2.1 mg/kg in the experiment on apomorphine and more than 21.5 mg/kg with physostigmin.
For `CN1CCN(C2=Nc3cc(Cl)ccc3C(=CC#N)c3cscc32)CC1` (mixture of isomers) [Example 3, cis,trans-7-chloro-10-cyanomethylene-4-(4-methylpiperazin-1-yl)-thieno[4,3-e]benzoazepine] the same measures were 0.89 mg/kg, 0.8 mg/kg, approximately 2 mg/kg and more than 21.5 mg/kg.
On to `CN1CCN(C2=Nc3ccccc3/C(=C\C#N)c3cscc32)CC1` [1 (trans), trans-10-cyanomethylene-4-(4-methylpiperazin-1-yl)-thieno[4,3-e]benzoazepine], for which the ED50 in experiment [1] turned out to be 5.1 mg/kg; with L-5HTP (setting [2]), 33 mg/kg; in the experiment on apomorphine, 10.9 mg/kg; in the experiment with physostigmin, 5.2 mg/kg. Besides, the “Sedative action (in words)” value in experiment [1] is on record as “fairly weak”. Further, in the experiment with apomorphine, the “Antimonaminergic action (in words)” value was “fairly weak”. Moreover, the “Anticholinergic action (in words)” value with physostigmin is listed as “predominates; also recorded: stronger than that of the comparative substances”.
Turning to `CN1CCN(C2=Nc3cc(Cl)ccc3Nc3ccccc32)CC1` [Clozapine, clozapine, reference compound], the ED50 in experiment [1] is 3.8 mg/kg; with L-5HTP (setting [2]), 6.3 mg/kg; in the experiment on apomorphine it was 11.3 mg/kg.
